Results taken from patent US8592379B2, “Metastin derivative and use thereof” (Kyoto University, priority 2008, dated 2013).
Read-outs that look alike come from different tables or passages of the source.

Experiments:
GPR54 [1] = molecular target: T1, GPR54 (Homo sapiens (Human), UniProt Q969F8); test: Flipr assay of GPR54 agonist activity (increase in intracellular Ca2+ ion concentration); assay type: cell-based; settings: for % Activity / activity at 0.01 µM: signal upon addition of 10 nM compound, based on signal of 1 μM kisspeptin-10 as 100%
T1 sequence (Q969F8 whole entry): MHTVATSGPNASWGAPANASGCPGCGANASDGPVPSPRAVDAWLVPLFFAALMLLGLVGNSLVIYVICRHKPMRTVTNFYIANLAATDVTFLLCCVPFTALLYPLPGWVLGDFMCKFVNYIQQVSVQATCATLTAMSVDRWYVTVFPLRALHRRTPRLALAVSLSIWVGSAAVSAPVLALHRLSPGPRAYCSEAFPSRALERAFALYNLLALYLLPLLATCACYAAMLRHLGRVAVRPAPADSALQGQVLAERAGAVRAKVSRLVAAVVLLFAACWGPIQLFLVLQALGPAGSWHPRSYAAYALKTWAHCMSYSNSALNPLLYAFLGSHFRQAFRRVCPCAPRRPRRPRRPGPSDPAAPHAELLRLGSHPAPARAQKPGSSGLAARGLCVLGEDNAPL
Method: The GPR54 agonist activity of the obtained compounds was evaluated by Flipr assay measuring increase in the intracellular Ca^2+ ion concentration caused by stimulation of receptor as a signal.

[2] = Half-life of the compound in the serum; settings: for t1/2: in the serum; for half-life: serum, t1/2, in the serum
Method: (§2) In addition, the half-life (t1/2) of the compound in the serum was measured.

MMP2 = MMP2 (Homo sapiens (Human), UniProt P08253); test: Resistance to decomposition by matrix protease MMP2; assay type: in vitro ADME; settings: for retention after treatment with MMP2: 48 hr, in words
From the text: (§1) Furthermore, the resistance of the present invention to the decomposition by matrix protease (MMP) was examined. […] However, only about 50% of compound 1 was retained.

MMP9 = MMP9 (Homo sapiens (Human), UniProt P14780); test: Resistance to decomposition by matrix protease MMP9; assay type: in vitro ADME; settings: for retention after treatment with MMP9: 72 hr, in words
From the text: as §1

[3] = serum
Method: as §2

GPR54 [4] = molecular target: T1, GPR54; test: Binding inhibitory test using membrane fraction of human GPR54-expressing cell and [125I]-Metastin 40-54
Method: A binding inhibitory test using membrane fraction of human GPR54-expressing cell and [^125I]-Metastin 40-54 was performed, and IC50 value was calculated (see non-patent document 2).

## CC(C)CC(C[C@@H](O)CNC(=O)[C@H](Cc1ccccc1)NC(=O)c1ccc(F)cc1)C(=O)N[C@@H](CCCNC(=N)N)C(=O)N[C@@H](Cc1c[nH]c2ccccc12)C(N)=O (single isomer, unassigned) [Compound 24a]
GPR54 [1]
  % Activity: 0.6%
[2]
  t1/2: 470 h

## CC(C)CC(C[C@@H](O)CNC(=O)[C@H](Cc1ccccc1)NC(=O)c1ccc(F)cc1)C(=O)N[C@@H](CCCNC(=N)N)C(=O)N[C@@H](Cc1c[nH]c2ccccc12)C(N)=O (single isomer, unassigned) [Compound 24b]
GPR54 [1]
  % Activity: 53.9%
[2]
  t1/2: 54 h

## CC(C)CC(C[C@H](O)CNC(=O)[C@H](Cc1ccccc1)NC(=O)c1ccc(F)cc1)C(=O)N[C@@H](CCCNC(=N)N)C(=O)N[C@@H](Cc1c[nH]c2ccccc12)C(N)=O (single isomer, unassigned) [Compound 25a]
GPR54 [1]
  % Activity: 13.8%
[2]
  t1/2: 120 h

## CC(C)CC(C[C@H](O)CNC(=O)[C@H](Cc1ccccc1)NC(=O)c1ccc(F)cc1)C(=O)N[C@@H](CCCNC(=N)N)C(=O)N[C@@H](Cc1c[nH]c2ccccc12)C(N)=O (single isomer, unassigned) [Compound 25b]
GPR54 [1]
  % Activity: 95.6%
MMP2
  retention after treatment with MMP2: retained even after 48 hr with scarce decomposition
MMP9
  retention after treatment with MMP9: retained even after 72 hr with scarce decomposition
[2]
  t1/2: 35 h

## CC(C)C[C@H](NC(=O)CNC(=O)[C@H](Cc1ccccc1)NC(=O)c1ccc(F)cc1)C(=O)N[C@@H](CCCN=C(N)N)C(=O)N[C@@H](Cc1c[nH]c2ccccc12)C(N)=O [Compound 1, reference compound]
GPR54 [1]
  activity at 0.01 µM: 94.7%
[3]
  t1/2: 6.6 h
MMP9; isolated matrix protease MMP9, read-out: amount retained after treatment with MMP9
  remaining at 72 h: ~50%

## CC(C)C[C@H](/C=C/CNC(=O)[C@H](Cc1ccccc1)NC(=O)c1ccc(F)cc1)C(=O)N[C@@H](CCCN=C(N)N)C(=O)N[C@@H](Cc1c[nH]c2ccccc12)C(N)=O [Compound 19]
GPR54 [1]
  activity at 0.01 µM: 97.6%
MMP2
  retention after treatment with MMP2: retained even after 48 hr with scarce decomposition
MMP9
  retention after treatment with MMP9: retained even after 72 hr with scarce decomposition
[2]
  half-life: 38 h

## CC(C)C[C@H](CCCNC(=O)[C@H](Cc1ccccc1)NC(=O)c1ccc(F)cc1)C(=O)N[C@@H](CCCNC(=N)N)C(=O)N[C@@H](Cc1c[nH]c2ccccc12)C(N)=O [Compound 20]
GPR54 [1]
  activity at 0.01 µM: 70.3%
[2]
  half-life: 45 h

## CC(C)C/C(=C\CCNC(=O)[C@H](Cc1ccccc1)NC(=O)c1ccc(F)cc1)C(=O)N[C@@H](CCCNC(=N)N)C(=O)N[C@@H](Cc1c[nH]c2ccccc12)C(N)=O [Compound 21]
GPR54 [1]
  activity at 0.01 µM: 49.3%
[2]
  half-life: 52 h

## CC(C)C/C(=C\[C@@H](O)CNC(=O)[C@H](Cc1ccccc1)NC(=O)c1ccc(F)cc1)C(=O)N[C@@H](CCCNC(=N)N)C(=O)N[C@@H](Cc1c[nH]c2ccccc12)C(N)=O [Compound 22]
GPR54 [1]
  activity at 0.01 µM: 18.7%
[2]
  half-life: 60 h

## CC(C)C/C(=C\[C@H](O)CNC(=O)[C@H](Cc1ccccc1)NC(=O)c1ccc(F)cc1)C(=O)N[C@@H](CCCN=C(N)N)C(=O)N[C@@H](Cc1c[nH]c2ccccc12)C(N)=O [Compound 23]
GPR54 [1]
  activity at 0.01 µM: 0.7%
MMP9
  retention after treatment with MMP9: retained even after 72 hr with scarce decomposition
[2]
  half-life: 1100 h

## CC(C)C[C@H](NC(=O)CNC(=O)[C@H](Cc1ccccc1)NC(=O)[C@H](CO)NC(=O)[C@H](CC(N)=O)NC(=O)[C@H](Cc1c[nH]c2ccccc12)NC(=O)[C@H](CC(N)=O)NC(=O)[C@@H](N)Cc1ccc(O)cc1)C(=O)N[C@@H](CCCNC(=N)N)C(=O)N[C@@H](Cc1ccccc1)C(N)=O [Kisspeptin-10, reference compound]
GPR54 [1]; EC50 of compound divided by EC50 of kisspeptin-10
  QEC: 1
MMP2; isolated matrix protease MMP2, read-out: amount retained after treatment with MMP2
  remaining at 48 h: ~65%
GPR54 [4]; IC50 of compound divided by IC50 of kisspeptin-10
  QIC: 1
GPR54 [4]; [125I]-Metastin 40-54 as labeled ligand, membrane fraction
  IC50: 70 to 120 pM
